Test results published in EP3212201B1, “NUCLEOSIDE KINASE INHIBITORS” (BCI Pharma, priority 2014, dated 2016).

Key:
Experiment in all cases: FRET-based coupled-enzyme protein kinase inhibition assay
Type in all cases: biochemical
Details in all cases: compound at 10 µM, 1% DMSO
ROCK1 = ROCK1 (Homo sapiens, UniProt Q13464)
Procedure, shortened: (§1)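 FRET peptide (coumarin donor, fluorescein acceptor) was phosphorylated by each kinase in 50 mM HEPES pH 7.5, 10 mM MgCl2, 1 mM EDTA, 0.01% BRIJ-35 for 60 min at room temperature. ATP was at apparent Km, compounds in 1% DMSO. Protease development reagent then cleaved non-phosphorylated peptide over 60 min.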

KIT = KIT (Homo sapiens, UniProt P10721)
Procedure, shortened: as §1

EPHA2 = EPHA2 (Homo sapiens, UniProt P29317)
Procedure, shortened: as §1

DYRK3 = molecular target: T1, DYRK3 (Homo sapiens, UniProt O43781)
T1 sequence (O43781 1-588): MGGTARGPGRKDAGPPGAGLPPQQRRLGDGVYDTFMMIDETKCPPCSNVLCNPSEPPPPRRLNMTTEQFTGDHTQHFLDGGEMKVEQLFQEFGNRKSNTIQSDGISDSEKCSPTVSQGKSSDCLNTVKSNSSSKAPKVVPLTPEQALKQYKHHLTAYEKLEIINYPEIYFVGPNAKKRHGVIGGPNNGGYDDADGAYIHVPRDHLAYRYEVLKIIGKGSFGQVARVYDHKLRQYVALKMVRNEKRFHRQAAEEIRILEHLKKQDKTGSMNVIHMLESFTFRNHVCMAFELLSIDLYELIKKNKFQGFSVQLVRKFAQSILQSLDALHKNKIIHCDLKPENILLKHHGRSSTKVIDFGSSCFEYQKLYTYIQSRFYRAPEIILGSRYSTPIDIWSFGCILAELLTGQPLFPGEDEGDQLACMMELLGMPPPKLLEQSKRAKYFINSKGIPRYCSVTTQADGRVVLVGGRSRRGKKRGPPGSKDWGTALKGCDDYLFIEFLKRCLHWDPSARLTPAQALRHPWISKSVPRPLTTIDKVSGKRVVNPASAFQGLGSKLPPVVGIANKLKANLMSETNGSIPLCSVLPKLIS
Procedure, shortened: as §1

AURKA (Aurora A) = molecular target: T2, AURKA (Aurora A) (Homo sapiens, UniProt O14965)
T2 sequence (O14965 1-403): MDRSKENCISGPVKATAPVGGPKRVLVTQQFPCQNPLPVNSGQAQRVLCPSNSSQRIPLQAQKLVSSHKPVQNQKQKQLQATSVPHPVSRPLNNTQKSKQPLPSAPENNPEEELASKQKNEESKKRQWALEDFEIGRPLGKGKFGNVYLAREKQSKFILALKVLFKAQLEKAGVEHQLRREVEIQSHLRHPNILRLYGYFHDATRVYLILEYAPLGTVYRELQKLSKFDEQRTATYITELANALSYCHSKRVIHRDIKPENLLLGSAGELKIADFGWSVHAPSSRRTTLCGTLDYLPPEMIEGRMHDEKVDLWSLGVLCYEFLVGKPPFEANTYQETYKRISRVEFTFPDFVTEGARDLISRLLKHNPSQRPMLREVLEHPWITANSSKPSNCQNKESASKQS
Procedure, shortened: as §1

MET (cMet) = MET (cMet) (Homo sapiens, UniProt P08581)
Procedure, shortened: as §1

ERBB2 (HER2) = ERBB2 (HER2) (Homo sapiens, UniProt P04626)
Procedure, shortened: as §1

MAP4K4 (HGK) = MAP4K4 (HGK) (Homo sapiens, UniProt O95819)
Procedure, shortened: as §1

MAP2K1 (MEK1) = MAP2K1 (MEK1) (Homo sapiens, UniProt Q02750)
Procedure, shortened: as §1

AKT1 (PKB alpha) = AKT1 (PKB alpha) (Homo sapiens, UniProt P31749)
Procedure, shortened: as §1

MARK2 = MARK2 (Homo sapiens, UniProt Q7KZI7)
Procedure, shortened: as §1

RPS6KB1 (p70S6K) = RPS6KB1 (p70S6K) (Homo sapiens, UniProt P23443)
Procedure, shortened: as §1

ROCK1, sequence (Q13464 whole entry, species assumed): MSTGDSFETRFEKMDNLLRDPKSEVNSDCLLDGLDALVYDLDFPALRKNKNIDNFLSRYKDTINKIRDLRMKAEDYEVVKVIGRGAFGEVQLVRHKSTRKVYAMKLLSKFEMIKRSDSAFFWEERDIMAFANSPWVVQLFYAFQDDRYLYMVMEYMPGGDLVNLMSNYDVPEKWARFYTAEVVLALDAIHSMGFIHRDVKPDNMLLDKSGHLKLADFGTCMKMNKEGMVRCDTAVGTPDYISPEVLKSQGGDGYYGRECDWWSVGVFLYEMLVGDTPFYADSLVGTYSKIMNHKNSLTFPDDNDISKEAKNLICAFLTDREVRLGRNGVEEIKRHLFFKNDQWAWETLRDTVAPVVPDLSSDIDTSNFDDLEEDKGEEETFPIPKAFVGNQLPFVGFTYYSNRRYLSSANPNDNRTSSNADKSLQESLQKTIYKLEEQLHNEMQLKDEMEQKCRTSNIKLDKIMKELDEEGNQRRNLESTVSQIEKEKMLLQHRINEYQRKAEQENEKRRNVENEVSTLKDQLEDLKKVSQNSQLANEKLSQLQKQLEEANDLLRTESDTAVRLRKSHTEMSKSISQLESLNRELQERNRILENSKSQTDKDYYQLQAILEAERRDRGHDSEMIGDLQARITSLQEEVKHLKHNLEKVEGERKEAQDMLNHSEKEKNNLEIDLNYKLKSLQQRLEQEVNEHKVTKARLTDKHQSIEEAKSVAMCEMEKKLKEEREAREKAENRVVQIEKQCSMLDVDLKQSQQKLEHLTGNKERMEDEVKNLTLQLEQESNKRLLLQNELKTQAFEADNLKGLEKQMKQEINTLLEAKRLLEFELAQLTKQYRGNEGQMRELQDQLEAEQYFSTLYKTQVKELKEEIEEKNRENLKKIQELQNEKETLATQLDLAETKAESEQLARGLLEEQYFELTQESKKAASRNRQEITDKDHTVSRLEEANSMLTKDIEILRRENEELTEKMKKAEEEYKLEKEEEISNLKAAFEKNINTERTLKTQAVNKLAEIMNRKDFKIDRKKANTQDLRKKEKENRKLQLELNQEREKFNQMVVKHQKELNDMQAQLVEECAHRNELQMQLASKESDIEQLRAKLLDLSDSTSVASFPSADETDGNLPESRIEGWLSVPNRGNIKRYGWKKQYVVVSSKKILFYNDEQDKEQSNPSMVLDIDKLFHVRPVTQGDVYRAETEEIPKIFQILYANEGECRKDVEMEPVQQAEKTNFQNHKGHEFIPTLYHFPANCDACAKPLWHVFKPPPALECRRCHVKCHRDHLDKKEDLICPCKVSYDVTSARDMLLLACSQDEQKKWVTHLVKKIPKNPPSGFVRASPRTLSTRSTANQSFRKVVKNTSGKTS
MAP4K4 (HGK), sequence (O95819 whole entry, species assumed): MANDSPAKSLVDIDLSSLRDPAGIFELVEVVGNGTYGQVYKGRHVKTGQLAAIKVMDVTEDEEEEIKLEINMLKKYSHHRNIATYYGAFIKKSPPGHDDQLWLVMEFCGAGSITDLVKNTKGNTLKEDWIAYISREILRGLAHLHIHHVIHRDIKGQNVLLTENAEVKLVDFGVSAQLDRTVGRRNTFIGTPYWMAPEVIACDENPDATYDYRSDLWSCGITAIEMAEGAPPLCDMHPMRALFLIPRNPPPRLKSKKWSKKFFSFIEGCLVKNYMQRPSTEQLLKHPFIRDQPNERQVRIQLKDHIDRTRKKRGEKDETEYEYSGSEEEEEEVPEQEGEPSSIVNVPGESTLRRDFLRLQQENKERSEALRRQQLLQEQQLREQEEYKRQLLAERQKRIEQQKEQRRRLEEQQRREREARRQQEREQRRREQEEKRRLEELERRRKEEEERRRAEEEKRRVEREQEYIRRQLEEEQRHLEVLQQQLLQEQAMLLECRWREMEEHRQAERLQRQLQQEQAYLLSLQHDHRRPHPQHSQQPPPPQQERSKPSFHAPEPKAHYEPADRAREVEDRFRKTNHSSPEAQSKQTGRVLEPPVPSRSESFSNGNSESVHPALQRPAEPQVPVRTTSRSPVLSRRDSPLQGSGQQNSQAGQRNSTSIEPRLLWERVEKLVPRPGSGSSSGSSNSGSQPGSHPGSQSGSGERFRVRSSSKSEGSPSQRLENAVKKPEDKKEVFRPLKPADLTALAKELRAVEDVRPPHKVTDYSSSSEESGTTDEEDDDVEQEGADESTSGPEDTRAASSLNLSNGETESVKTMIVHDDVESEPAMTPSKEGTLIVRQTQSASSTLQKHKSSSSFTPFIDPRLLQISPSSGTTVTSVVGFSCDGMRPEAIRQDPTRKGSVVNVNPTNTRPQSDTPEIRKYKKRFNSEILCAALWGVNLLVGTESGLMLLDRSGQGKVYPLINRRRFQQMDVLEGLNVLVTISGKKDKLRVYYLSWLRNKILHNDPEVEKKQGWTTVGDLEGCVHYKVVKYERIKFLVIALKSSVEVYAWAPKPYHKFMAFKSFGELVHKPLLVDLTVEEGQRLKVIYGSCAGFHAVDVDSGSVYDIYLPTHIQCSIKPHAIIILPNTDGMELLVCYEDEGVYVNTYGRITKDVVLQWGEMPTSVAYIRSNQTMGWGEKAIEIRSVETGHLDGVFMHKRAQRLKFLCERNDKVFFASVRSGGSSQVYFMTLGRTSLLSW
MAP2K1 (MEK1), sequence (Q02750 whole entry, species assumed): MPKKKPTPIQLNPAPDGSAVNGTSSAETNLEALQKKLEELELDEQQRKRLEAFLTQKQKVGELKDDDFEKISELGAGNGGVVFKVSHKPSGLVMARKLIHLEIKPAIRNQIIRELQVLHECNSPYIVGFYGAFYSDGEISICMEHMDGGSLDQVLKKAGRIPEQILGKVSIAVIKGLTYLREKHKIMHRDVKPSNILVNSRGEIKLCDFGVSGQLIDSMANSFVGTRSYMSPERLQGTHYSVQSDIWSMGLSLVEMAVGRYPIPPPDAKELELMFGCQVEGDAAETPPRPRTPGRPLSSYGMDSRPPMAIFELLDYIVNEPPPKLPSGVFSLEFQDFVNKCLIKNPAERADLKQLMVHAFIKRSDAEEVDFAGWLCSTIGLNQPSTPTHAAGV
RPS6KB1 (p70S6K), sequence (P23443 whole entry, species assumed): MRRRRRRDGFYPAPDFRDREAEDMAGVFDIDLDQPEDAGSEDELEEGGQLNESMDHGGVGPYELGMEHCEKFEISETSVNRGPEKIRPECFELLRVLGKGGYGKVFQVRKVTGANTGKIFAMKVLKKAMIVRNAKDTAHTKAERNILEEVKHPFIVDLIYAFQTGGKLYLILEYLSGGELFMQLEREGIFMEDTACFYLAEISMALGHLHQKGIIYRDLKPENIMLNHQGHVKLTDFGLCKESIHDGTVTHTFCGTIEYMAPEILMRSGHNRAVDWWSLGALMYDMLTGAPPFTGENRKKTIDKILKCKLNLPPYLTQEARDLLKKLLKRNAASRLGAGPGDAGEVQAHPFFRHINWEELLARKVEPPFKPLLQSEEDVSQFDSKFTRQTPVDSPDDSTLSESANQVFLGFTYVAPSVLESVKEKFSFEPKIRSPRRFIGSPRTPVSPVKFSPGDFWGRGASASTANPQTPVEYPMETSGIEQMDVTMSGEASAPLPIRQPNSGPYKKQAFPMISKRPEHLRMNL
KIT, sequence (P10721 26-976, species assumed): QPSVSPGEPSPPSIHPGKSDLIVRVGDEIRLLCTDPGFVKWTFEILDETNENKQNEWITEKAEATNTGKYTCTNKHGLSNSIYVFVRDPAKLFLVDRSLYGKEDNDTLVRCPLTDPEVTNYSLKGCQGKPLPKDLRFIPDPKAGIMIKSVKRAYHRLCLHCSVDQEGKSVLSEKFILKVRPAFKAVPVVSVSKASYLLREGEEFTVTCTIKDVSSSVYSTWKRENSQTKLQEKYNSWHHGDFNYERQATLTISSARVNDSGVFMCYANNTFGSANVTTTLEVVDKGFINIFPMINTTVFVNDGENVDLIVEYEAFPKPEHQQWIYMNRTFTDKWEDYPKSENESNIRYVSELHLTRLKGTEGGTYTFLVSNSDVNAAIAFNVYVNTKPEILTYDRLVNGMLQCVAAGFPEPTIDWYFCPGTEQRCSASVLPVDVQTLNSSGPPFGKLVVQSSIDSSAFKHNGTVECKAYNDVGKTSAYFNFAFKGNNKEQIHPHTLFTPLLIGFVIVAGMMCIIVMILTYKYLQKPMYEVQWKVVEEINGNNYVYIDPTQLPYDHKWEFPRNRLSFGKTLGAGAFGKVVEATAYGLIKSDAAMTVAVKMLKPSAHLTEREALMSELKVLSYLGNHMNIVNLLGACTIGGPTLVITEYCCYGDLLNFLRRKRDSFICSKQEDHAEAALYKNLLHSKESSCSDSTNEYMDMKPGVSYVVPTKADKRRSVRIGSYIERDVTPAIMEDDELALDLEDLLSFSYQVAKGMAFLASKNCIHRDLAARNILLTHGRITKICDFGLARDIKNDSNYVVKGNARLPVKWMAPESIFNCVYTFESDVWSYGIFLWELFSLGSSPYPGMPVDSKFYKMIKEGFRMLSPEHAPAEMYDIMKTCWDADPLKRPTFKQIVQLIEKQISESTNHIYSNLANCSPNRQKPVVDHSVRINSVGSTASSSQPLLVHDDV
AKT1 (PKB alpha), sequence (P31749 whole entry, species assumed): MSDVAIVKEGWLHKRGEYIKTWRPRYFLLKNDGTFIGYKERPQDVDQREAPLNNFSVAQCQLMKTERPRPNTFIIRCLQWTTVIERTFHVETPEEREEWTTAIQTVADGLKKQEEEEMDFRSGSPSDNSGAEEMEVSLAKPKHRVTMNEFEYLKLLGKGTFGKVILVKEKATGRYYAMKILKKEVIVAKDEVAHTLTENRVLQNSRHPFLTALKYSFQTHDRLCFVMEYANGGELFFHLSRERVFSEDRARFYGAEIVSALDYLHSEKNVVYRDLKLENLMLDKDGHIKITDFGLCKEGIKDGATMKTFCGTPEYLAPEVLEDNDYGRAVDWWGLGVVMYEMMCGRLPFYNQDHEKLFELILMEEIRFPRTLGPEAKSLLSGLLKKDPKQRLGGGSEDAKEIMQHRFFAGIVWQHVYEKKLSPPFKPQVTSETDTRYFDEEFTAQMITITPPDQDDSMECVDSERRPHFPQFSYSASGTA

| SMILES | inhibition at 10 µM (ROCK1) | inhibition at 10 µM (KIT) | inhibition at 10 µM (EPHA2) | inhibition at 10 µM (DYRK3) | inhibition at 10 µM (AURKA (Aurora A)) | inhibition at 10 µM (MET (cMet)) | inhibition at 10 µM (ERBB2 (HER2)) | inhibition at 10 µM (MAP4K4 (HGK)) | inhibition at 10 µM (MAP2K1 (MEK1)) | inhibition at 10 µM (AKT1 (PKB alpha)) | inhibition at 10 µM (MARK2) | inhibition at 10 µM (RPS6KB1 (p70S6K)) |
| --- | --- | --- | --- | --- | --- | --- | --- | --- | --- | --- | --- | --- |
| C[C@@H](NC(=O)OC[C@H]1O[C@@H](n2cnc3c(N)ncnc32)[C@H](O)[C@@H]1O)c1ccc(Cl)cc1 [Compound C4] | -7% | 20% | 4% | 5% | 8% | 3% | 2% | 16% | 4% | -2% | 20% | 22% |
| Nc1ncnc2c1ncn2[C@@H]1O[C@H](COC(=O)N2CCN(Cc3ccccc3)CC2CO)[C@@H](O)[C@H]1O (stereo partly drawn) [Compound C13] | -7% | 18% | 3% | 9% | -1% | 0% | 3% | -5% | 1% | 2% | 11% | 10% |
| CN1CCN(CCNC(=O)OC[C@H]2O[C@@H](n3cnc4c(N)ncnc43)[C@H](O)[C@@H]2O)CC1 [Compound C46] | -3% | 6% | 3% | 4% | 3% | 8% | -14% | 13% | -1% | 4% | 4% | 14% |

More lines, now with the values ahead:

| inhibition at 10 µM (ROCK1) | inhibition at 10 µM (KIT) | inhibition at 10 µM (EPHA2) | inhibition at 10 µM (DYRK3) | inhibition at 10 µM (AURKA (Aurora A)) | inhibition at 10 µM (MET (cMet)) | inhibition at 10 µM (ERBB2 (HER2)) | inhibition at 10 µM (MAP4K4 (HGK)) | inhibition at 10 µM (MAP2K1 (MEK1)) | inhibition at 10 µM (AKT1 (PKB alpha)) | inhibition at 10 µM (MARK2) | inhibition at 10 µM (RPS6KB1 (p70S6K)) | SMILES |
| --- | --- | --- | --- | --- | --- | --- | --- | --- | --- | --- | --- | --- |
| 2% | 28% | 12% | 31% | -7% | -16% | -7% | 9% | 10% | 7% | 10% | 11% | Nc1ncnc2c1ncn2[C@@H]1O[C@H](COC(=O)NC[C@H](O)CO)[C@@H](O)[C@H]1O [Compound C8] |
| 18% | 10% | 8% | 12% | 9% | 0% | 5% | 17% | 11% | -2% | 3% | 15% | Nc1ncnc2c1ncn2[C@@H]1O[C@H](COC(=O)NCCCc2nc3ccccc3[nH]2)[C@@H](O)[C@H]1O [Compound C1] |
